Drawing on patent US5244898A, “Benzoheterocyclic compounds” (Otsuka Pharmaceutical Co., Ltd., priority 1991, dated 1993), this text covers IC50 for 25 molecules.

Broadly, the IC50 is the concentration that gives 50% inhibition. A high value points to weaker potency.

The target in one assay is T1, V2 Receptor (Rattus norvegicus, UniProt Q00788).
T1 construct: rat kidney plasma membrane preparations; from tissue; host or cells: rat kidney plasma membranes
Kind of assay: V2 Receptor Binding Assay ([3H]-Arg-vasopressin, rat kidney plasma membrane). The conditions noted are these: 4° C., pH 8.0.

The target in the next assay is V1 Receptor (Rattus norvegicus, UniProt P30560). Kind of assay: V1 Receptor Binding Assay ([3H]-Arg-vasopressin, rat liver plasma membrane). The settings on record: 37° C., 10 minutes, pH 8.0.
Chain of V1 Receptor (P30560 whole entry): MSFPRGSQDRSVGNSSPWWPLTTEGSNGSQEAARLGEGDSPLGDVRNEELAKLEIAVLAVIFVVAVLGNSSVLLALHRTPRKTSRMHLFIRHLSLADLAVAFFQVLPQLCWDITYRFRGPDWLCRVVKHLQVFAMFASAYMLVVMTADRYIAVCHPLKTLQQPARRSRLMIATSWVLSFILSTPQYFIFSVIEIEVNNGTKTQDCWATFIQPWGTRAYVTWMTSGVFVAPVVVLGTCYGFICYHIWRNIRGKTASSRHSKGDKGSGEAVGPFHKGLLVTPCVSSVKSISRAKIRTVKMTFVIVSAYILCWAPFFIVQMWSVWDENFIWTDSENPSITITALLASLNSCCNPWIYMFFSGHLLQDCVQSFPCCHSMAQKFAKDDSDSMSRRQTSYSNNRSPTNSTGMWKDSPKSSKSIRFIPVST

Molecules are shown by their SMILES. Structures can show the parent of a compound that is named as a salt.

T1 sequence (Q00788 whole entry): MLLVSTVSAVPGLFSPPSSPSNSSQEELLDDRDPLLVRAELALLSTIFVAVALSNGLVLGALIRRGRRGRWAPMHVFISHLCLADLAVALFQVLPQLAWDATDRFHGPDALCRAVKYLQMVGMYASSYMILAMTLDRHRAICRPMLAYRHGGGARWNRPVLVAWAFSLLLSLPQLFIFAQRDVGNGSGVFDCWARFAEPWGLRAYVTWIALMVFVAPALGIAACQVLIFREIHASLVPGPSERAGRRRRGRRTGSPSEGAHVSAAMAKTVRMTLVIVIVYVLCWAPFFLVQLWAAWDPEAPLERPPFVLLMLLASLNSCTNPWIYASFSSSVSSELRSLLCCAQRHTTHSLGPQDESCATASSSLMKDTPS
Procedure for V1 Receptor: After incubation, the mixture is filtered three times using the glass filter (GF/F) so as to separate the membrane preparation combining with vasopressin and then washed with the buffer (5 ml). This glass filter is taken out and mixed with liquid scintillation cocktail. The amount of [^3 H]-vasopressin combining with the membrane is measured by liquid scintillation counter and the rate of the inhibitory effect of the test compound is estimated according to the following equation.
(§1) C1 : The amount of [^3 H]-vasopressin combining with the membrane in the presence of the test compound of a known amount.
(§2) C0 : The amount of [^3 H]-vasopressin combining with the membrane in the absence of the test compound.
B1 : The amount of [^3 H]-vasopressin combining with the membrane in the presence of the excess amount of vasopressin (10^-6 M).
(§3) The results are expressed as IC50 value, which is the concentration of the test compound required to achieve the inhibitory effect in the rate of 50%.
Procedure for V2 Receptor: Chem., 253, 3211 (1978)], the plasma membrane (100000 dpm, 4×10^-10M) of [^3 H]-Arg-vasopressin and a test compound (0.6 mg, 10^-10 -10^-5 M) are incubated at 4° C. for 3 hours in 100 mM Tris-HCl buffer pH: 8.0 (250 μl ) containing 5 mM MgCl2, 1 mM EDTA and 0.1 % BSA. After incubation, the mixture is filtered using the glass filter (GF/F) so as to separate the membrane preparation combining with vasopressin and then washed twice with the buffer (5 ml). This glass filter is taken out and mixed with liquid scintillation cocktail. The amount of [^3 H]-vasopressin combining with the membrane is measured by liquid scintillation counter and the rate of the inhibitory effect of the test compound is estimated according to the following equation. [formula]
as §1, §2
B1 : The amount of [3H-vasopressin combining with the membrane in the presence of the excess amount of vasopressin (10^-6 M).
as §3

As for `COc1cc(NC(=O)c2ccccc2C)ccc1C(=O)N1CCCC(OC(=O)[C@@H](N)CCSC)c2cc(Cl)ccc21` (single isomer, unassigned) [Test Compound 13, 5-(L-Methionyloxy)-7-chloro-1-[2-methoxy-4-(2-methylbenzoylamino)benzoyl]-2,3,4,5-tetrahydro-1H-benzazepine hydrochloride], the half-maximal inhibitory concentration (IC50) at V2 Receptor came out at 6 nM; at V1 Receptor it was 20 nM.
For the molecule `COc1cc(NC(=O)c2ccccc2C)ccc1C(=O)N1CCCC(CC(=O)N2CCCCC2)c2cc(F)ccc21` (centres unmarked) [Test Compound 58, 5-[(1-piperidinyl)carbonylmethyl]-7-fluoro-1-[2-methoxy-4-(2-methylbenzoylamino)benzoyl]-2,3,4,5-tetrahydro-1H-benzazepine], the figures for the half-inhibitory concentration (IC50) at V2 Receptor and on V1 Receptor were 16 nM and 95 nM, respectively.
Take `CNC(=O)CC1CCCN(C(=O)c2ccc(NC(=O)c3ccccc3C)cc2OC)c2ccc(F)cc21` (centres unmarked) [Test Compound 42, 5-Methylaminocarbonylmethyl-7-fluoro-1-[2-methoxy-4-(2-methylbenzoylamino)benzoyl]-2,3,4,5-tetrahydro-1H-benzazepine]: the half-inhibitory concentration (IC50) at V2 Receptor stood at 6 nM; at V1 Receptor, 160 nM.
As to `COc1cc(NC(=O)c2ccccc2C)ccc1C(=O)N1CCCC(OC(=O)[C@@H](N)CCCCN)c2cc(Cl)ccc21` (stereo partly drawn) [Test Compound 29, 5-(L-Lysyloxy)-7-chloro-1-[2-methoxy-4-(2-methylbenzoylamino)benzoyl]-2,3,4,5-tetrahydro-1H-benzazepine dihydrochloride], the half-maximal inhibitory concentration (IC50) at V2 Receptor turned out to be 6 nM; at V1 Receptor, 40 nM.
In the same order, the values of `COc1cc(C(=O)N2CCCC(CC#N)c3cc(Cl)ccc32)ccc1NC(=O)c1ccccc1C` (centres unmarked) [Test Compound 39, 5-Cyanomethyl-7-chloro-1-[3-methoxy-4-(2-methylbenzoylamino)benzoyl]-2,3,4,5-tetrahydro-1H-benzazepine] are 14 nM and 44 nM.
`COc1cc(NC(=O)c2ccccc2C)ccc1C(=O)N1CCCC(CN2CCN(C)CC2)c2cc(F)ccc21` (centres unmarked) [Test Compound 46, 5-[(4-Methyl-I-piperazinyl)methyl]-7-fluoro-1-[2-methoxy-4-(2-methylbenzoylamino)benzoyl]-2,3,4,5-tetrahydro-1H-benzazepine]: the 50% inhibitory concentration (IC50) on V2 Receptor was 9 nM; on V1 Receptor, 89 nM.
Taken in the same sequence, the figures for `COc1cc(C(=O)N2CCCC(CC(=O)NC3CCNCC3)c3cc(Cl)ccc32)ccc1NC(=O)c1ccccc1C` (centres unmarked) [Test Compound 30, 5-[(4-Piperidinyl)aminocarbonylmethyl]-7-chloro-1-[3-methoxy-4-(2-methylbenzoylamino)benzoyl]-2,3,4,5-tetrahydro-1H-benzazepine hydrochloride] were 9 nM and 31 nM.
On to `COc1cc(NC(=O)c2ccccc2C)ccc1C(=O)N1CCCC(CCN2CCC(N(C)C)CC2)c2cc(Cl)ccc21` (centres unmarked) [Test Compound 54, 5-[2-(4-Dimethylamino-1-piperidinyl)ethyl]-7-chloro-1-[2-methoxy-4-(2-methylbenzoylamino)benzoyl]-2,3,4,5-tetrahydro-1H-benzazepine dihydrochloride], for which the results for the concentration for half-maximal inhibition (IC50) on V2 Receptor and at V1 Receptor were 4 nM and 54 nM, respectively.
In the case of `Cc1ccccc1C(=O)Nc1ccc(C(=O)N2CCCC(COC(=O)CN(C)C)c3cc(Cl)ccc32)cc1` (centres unmarked) [Test Compound 25, 5-[2-(Dimethylaminoacetyloxy)methyl]-7-chloro-1-[4-(2-methylbenzoylamino)benzoyl]-2,3,4,5-tetrahydro-1H-benzazepine hydrochloride], the IC50 on V2 Receptor came out at 4 nM; on V1 Receptor it was 21 nM.
For `COCC(=O)OC1CCCN(C(=O)c2ccc(NC(=O)c3ccccc3C)cc2)c2ccc(Cl)cc21` (centres unmarked) [Test Compound 24, 5-(2-Methoxyacetyloxy)-7-chloro-1-[4-(2-methylbenzoylamino)benzoyl]-2,3,4,5-tetrahydro-1H-benzazepine], the figures for the 50% inhibitory concentration (IC50) at V2 Receptor and at V1 Receptor were 7 nM and 18 nM, respectively.
Regarding `COc1cc(C(=O)N2CCCC(CC(=O)N(C)C)c3cc(Cl)ccc32)ccc1NC(=O)c1ccccc1C` (centres unmarked) [Test Compound 32, 5-Dimethylaminocarbonylmethyl-7-chloro-1-[3-methoxy-4-(2-methylbenzoylamino)benzoyl]-2,3,4,5-tetrahydro-1H-benzazepine], the values for the IC50 on V2 Receptor and on V1 Receptor were 4 nM and 11 nM, respectively.
Regarding `COc1cc(NC(=O)c2ccccc2C)ccc1C(=O)N1CCCC(OCCN2CCN(C)CC2)c2cc(F)ccc21` (centres unmarked) [Test Compound 47, 5-[2-(4-Methyl-1-piperazinyl)ethoxy]-7-fluoro-1-[2-methoxy-4-(2-methylbenzoylamino)benzoyl]-2,3,4,5-tetrahydro-1H-benzazepine], the IC50 at V2 Receptor was determined as 8 nM; on V1 Receptor, 330 nM.
For the molecule `COc1cc(NC(=O)c2ccccc2Br)ccc1C(=O)N1CCCC(CC(=O)N(C)C)c2cc(F)ccc21` (centres unmarked) [Test Compound 51, 5-Dimethylaminocarbonylmethyl-7-fluoro-1-[2-methoxy-4-(2-bromobenzoylamino)benzoyl]-2,3,4,5-tetrahydro-1H-benzazepine], the half-maximal inhibitory concentration (IC50) came out at 3 nM at V2 Receptor and 18 nM at V1 Receptor.
In the same order, the values of `COc1cc(NC(=O)c2ccccc2C)ccc1C(=O)N1CCCC(OC(=O)CN2CCOCC2)c2cc(Cl)ccc21` (centres unmarked) [Test Compound 17, 5-(2-Morpholinoacetyloxy)-7-chloro-1-[2-methoxy-4-(2-methylbenzoylamino)benzoyl]-2,3,4,5-tetrahydro-1H-benzazepine hydrochloride] are 12 nM and 21 nM.
`COc1cc(NC(=O)c2ccccc2C)ccc1C(=O)N1CCCC(CCN2CCN(C)CC2)c2cc(Cl)ccc21` (centres unmarked) [Test Compound 55, 5-[2-(4-Methyl-1-piperazinyl)ethyl]-7-chloro-1-[2-methoxy-4-(2-methylbenzoylamino)benzoyl]-2,3,4,5-tetrahydro-1H-benzazepine dihydrochloride]: the half-inhibitory concentration (IC50) was 12 nM at V2 Receptor and 62 nM on V1 Receptor.
On to `Cc1ccccc1C(=O)Nc1ccc(C(=O)N2CCCC(=CCCN(C)C)c3cc(F)ccc32)c(Cl)c1` [Test Compound 33, 5-(3-Dimethylaminopropylidene)-7-fluoro-1-[2-chloro-4-(2-methylbenzoylamino)benzoyl]-2,3,4,5-tetrahydro-1H-benzazepine hydrochloride], for which the IC50 was determined as 2 nM at V2 Receptor and 84 nM on V1 Receptor.
As to `Cc1ccccc1C(=O)Nc1ccc(C(=O)N2CCCC(C#N)c3cc(Cl)ccc32)cc1Cl` (centres unmarked) [Test Compound 38, 5-Cyano-7-chloro-1-[3-chloro-4-(2-methylbenzoylamino)benzoyl]-2,3,4,5-tetrahydro-1H-benzazepine], the IC50 was determined as 150 nM on V2 Receptor and 160 nM on V1 Receptor.
Turning to `COc1cc(NC(=O)c2ccccc2Cl)ccc1C(=O)N1CCCC(CC(=O)NC2CCN(Cc3ccccc3)CC2)c2cc(Cl)ccc21` (centres unmarked) [Test Compound 48, 5-[(1-Benzyl-4-piperidinyl)aminocarbonylmethyl]-7-chloro-1-[2-methoxy-4-(2-chlorobenzoylamino)benzoyl]-2,3,4,5-tetrahydro-1H-benzazepine hydrochloride], the IC50 at V2 Receptor amounted to 12 nM; at V1 Receptor, 37 nM.
Regarding `COc1cc(NC(=O)c2ccccc2C)ccc1C(=O)N1CCCC(CC(=O)N2CCNCC2)c2cc(Cl)ccc21` (centres unmarked) [Test Compound 52, 5-[(1-Piperazinyl)carbonylmethyl]-7-chloro-1-[2-methoxy-4-(2-methylbenzoylamino)benzoyl]-2,3,4,5-tetrahydro-1H-benzazepine hydrochloride], the concentration for half-maximal inhibition (IC50) at V2 Receptor turned out to be 6 nM; on V1 Receptor, 16 nM.
With `COc1cc(C(=O)N2CCCC(CC(=O)N3CCN(C)CC3)c3cc(Cl)ccc32)ccc1NC(=O)c1ccccc1C` (centres unmarked) [Test Compound 27, 5-[(4-Methyl-1-piperazinyl)carbonylmethyl]-7-chloro-1-[3-methoxy-4-(2-methylbenzoylamino)benzoyl]-2,3,4,5-tetrahydro-1H-benzazepine], the IC50 came out at 7 nM on V2 Receptor and 34 nM at V1 Receptor.
For `COc1cc(NC(=O)c2ccccc2C)ccc1C(=O)N1CCCC(OCCN2CCN(C(C)=O)CC2)c2cc(Cl)ccc21` (centres unmarked) [Test Compound 40, 5-[2-(4-Acetyl-1-piperazinyl)ethoxy]-7-chloro-1-[2-methoxy-4-(2-methylbenzoylamino)benzoyl]-2,3,4,5-tetrahydro-1H-benzazepine hydrochloride], the results for the IC50 on V2 Receptor and on V1 Receptor were 7 nM and 73 nM, respectively.
In the case of `Cc1ccccc1C(=O)Nc1ccc(C(=O)N2CCCC(CC(=O)N3CCCC3)c3cc(F)ccc32)cc1` (centres unmarked) [Test Compound 50, 5-[(1-Pyrrolidinyl)carbonylmethyl]-7-fluoro-1-[4-(2-methylbenzoylamino)benzoyl]-2,3,4,5-tetrahydro-1H-benzazepine], the IC50 on V2 Receptor worked out at 15 nM; at V1 Receptor it was 110 nM.
As for `CCOc1cc(NC(=O)c2ccccc2Cl)ccc1C(=O)N1CCCC(CC(N)=O)c2cc(Cl)ccc21` (centres unmarked) [Test Compound 28, 5-Carbamoylmethyl-7-chloro-1-[2-ethoxy-4-(2-chlorobenzoylamino)benzoyl]-2,3,4,5-tetrahydro-1H-benzazepine], the 50% inhibitory concentration (IC50) at V2 Receptor was 2 nM; at V1 Receptor, 30 nM.
In the case of `Cc1ccccc1C(=O)Nc1ccc(C(=O)N2CCCC(OC(=O)[C@@H](N)C(C)C)c3cc(Cl)ccc32)c(C)c1` (single isomer, unassigned) [Test Compound 15, 5-(L-Valyloxy)-7-chloro-1-[2-methyl-4-(2-methylbenzoylamino)benzoyl]-2,3,4,5-tetrahydro-1H-benzazepine hydrochloride], the half-maximal inhibitory concentration (IC50) at V2 Receptor was 14 nM; on V1 Receptor, 180 nM.
For the molecule `COc1cc(NC(=O)c2ccccc2C)ccc1C(=O)N1CCCC(OCCCOS(=O)(=O)c2ccc(C)cc2)c2cc(Cl)ccc21` (centres unmarked) [Test Compound 37, 5-[3-(p-Toluenesulfonyloxy)propoxy]-7-chloro-1-[2-methoxy-4-(2-methylbenzoylamino)benzoyl]-2,3,4,5-tetrahydro-1H-benzazepine], the concentration for half-maximal inhibition (IC50) on V2 Receptor was 5.4 nM; on V1 Receptor, 210 nM.
